ChEMBL document CHEMBL1121518, “Congeners of the beta conformer of dopamine derived from cis- and trans-octahydrobenzo[f]quinoline and trans-octahydrobenzo[g]quinoline” (1980)

Key:
Canis familiaris [1] = organism: Canis familiaris; assay: Tested for mean blood pressure in dog after ID50 dose; type: functional, Canis lupus familiaris
Canis familiaris [2] = organism: Canis familiaris; assay: Tested for mean heart rate in dog after ID50 dose; type: functional, Canis lupus familiaris
Felis catus = organism: Felis catus; assay: Tested for inhibition of cardioaccelerator nerves of cat; type: functional; conditions: read-out: ID50 (the source's name)
Canis familiaris [3] = assay: Tested for mean blood pressure in dog before drug administration; type: functional, Canis lupus familiaris
Canis familiaris [4] = assay: Tested for mean heart rate in dog before drug administration; type: functional, Canis lupus familiaris
[5] = biological target: T1, Alpha-1A adrenergic receptor (Homo sapiens) (UniProt P35348); assay: Inhibitory activity against adrenergic alpha-receptor transmission, its effect being blocked by phentolamine; conditions: Felis catus
T1 sequence (whole entry): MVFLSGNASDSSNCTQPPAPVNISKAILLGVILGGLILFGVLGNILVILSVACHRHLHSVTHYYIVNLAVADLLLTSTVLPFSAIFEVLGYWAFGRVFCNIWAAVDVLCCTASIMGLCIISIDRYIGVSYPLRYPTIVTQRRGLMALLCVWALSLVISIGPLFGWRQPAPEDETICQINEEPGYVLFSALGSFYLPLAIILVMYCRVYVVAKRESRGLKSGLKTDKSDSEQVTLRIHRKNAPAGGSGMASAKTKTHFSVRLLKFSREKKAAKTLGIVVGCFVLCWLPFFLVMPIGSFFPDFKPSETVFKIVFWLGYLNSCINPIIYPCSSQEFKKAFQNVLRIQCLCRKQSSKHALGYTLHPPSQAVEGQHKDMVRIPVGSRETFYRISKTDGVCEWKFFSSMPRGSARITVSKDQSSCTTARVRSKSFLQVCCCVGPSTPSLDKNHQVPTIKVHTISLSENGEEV

Row | Compound | Activity (Canis familiaris [1]) [mmHg] | Activity (Canis familiaris [2]) [beats min-1] | ED50 (Felis catus) [µmol/kg] | Activity (Canis familiaris [3]) [mmHg] | Activity (Canis familiaris [4]) [beats min-1] | Activity [5] [mg/kg]
1 | Br.CN1CCC[C@@H]2c3cc(O)c(O)cc3CC[C@H]21 | 95.6 | 160.9 | 0.0055 | 116.7 | 175.4 | 
2 | Br.CN1CCCC2c3cc(O)c(O)cc3CCC21 (cis isomer) | 95.4 | 158.6 | 0.31 | 125.8 | 174 | 2
3 | CN1CCc2cccc3c2[C@H]1Cc1ccc(O)c(O)c1-3 [APOMORPHINE] | 92 | 128.9 | 0.022 | 109.5 | 139.2 | 
4 | Br.CCN1CCCC2c3cc(O)c(O)cc3CCC21 (stereo unspecified) | 89.8 | 162.8 | 0.45 | 115 | 183 | 
5 | Br.CCN1CCC[C@@H]2c3cc(O)c(O)cc3CC[C@H]21 | 90.9 | 161.3 | 0.0009 | 115.4 | 176.9 | 
6 | Br.CCCN1CCC[C@@H]2c3cc(O)c(O)cc3CC[C@H]21 | 73.6 | 156.9 | 0.0013 | 116.4 | 178 | 
7 | Br.CCCN1CCCC2c3cc(O)c(O)cc3CCC21 (stereo unspecified) | 82.9 | 165 | 0.26 | 114.9 | 175.7 | 
